Measured values published in patent US12448369B2 (Edgewise Therapeutics, Inc., priority 2023, dated 2025).
Where two headings read alike, the source gives them in different places.

Experiments:
[1] = test system: Porcine atria myofibrils (atrial myosin ATPase); test: Myofibril ATPase assay, porcine atria myofibrils; assay type: biochemical
Summary of the method: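 Values are Y75 (concentration cutting ATPase activity to 75% of vehicle) or Y125 (raising it to 125%), taken from 4-parameter logistic fits. Rates come from NADH disappearance at 340 nm in a PK/LDH-coupled assay with porcine atria myofibrils.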

SD rats = test: Echocardiography of systolic cardiac performance (HR, FS, LV volumes, SWT) after a single oral dose; assay type: in vivo; conditions: Rattus norvegicus, single dose 10 mg/kg PO, ~2 hrs post-dosing, isoflurane-anesthetized
Experimental: Example 2. Echocardiogram Data
Experiments were performed to evaluate the in vivo ability of the compounds of the disclosure to modulate systolic cardiac performance. Non-invasively echocardiography was used to assess cardiac indicators in isoflurane-anesthetized SD rats. A set of conscious rats were treated with either vehicle control (0 mg/kg PO; n=78) or a single dose of a test compound (10 mg/kg PO, n=2 to 6/compound) via oral gavage. Cardiac function/geometry were recorded at two separate time-points/days: once prior to dosing (e.g., at baseline, day −2) and at ˜2 hrs post-dosing (day 0). In these experiments, heart rate (HR), echocardiography-derived indices of left-ventricular systolic performance, as well as dimensions/volumes were measured using a high-frequency transducer and parasternal long-axis transthoracic views (Vevo3100, VisualSonic). LV fractional shortening (FS), an index of systolic function, was defined as the end-diastole normalized change in internal dimensions divided by the difference in diameter (LVid) of the left ventricle between end-systole (LVids) and end-diastole (LVidd) (e.g., FS=100·[LVidd−LVids]/LVidd). LV volumes were derived using the Teichholz formula (LVV=[7·LVid^3]/[2.4+LVid]). In addition, a systolic wall-thickening index (SWT) was also evaluated. SWT is defined as the relative ratio (end-diastole normalized) of left-ventricular (anterior and posterior) wall-thickness change during systole; e.g., SWT={[(anterior LV wall thickness in systole−anterior LV wall thickness in diastole)]+[(posterior LV wall thickness in systole−posterior LV wall thickness in diastole)]}/{2*diastolic thickness}. In all cases, blood samples were taken (via either tail-vein micro-sampling or cardiac-puncture) at the time of each echocardiographic examination in order to establish pharmacokinetic (PK)/pharmacodynamics (PD) relationships.

[2] = target: T1, Porcine ventricle myofibrils (ventricular myosin ATPase) (Sus scrofa, UniProt P79293); test: Myofibril ATPase assay, porcine ventricle myofibrils; assay type: biochemical, porcine (Yucatan minipigs)
T1 construct: Myofibrils from porcine cardiac muscle was isolated from the left ventricle of Yucatan minipigs; tissue Exemplar Genetics; host or cells: left ventricle of Yucatan minipigs, myofibrils prepared in house
T1 sequence (P79293 whole entry): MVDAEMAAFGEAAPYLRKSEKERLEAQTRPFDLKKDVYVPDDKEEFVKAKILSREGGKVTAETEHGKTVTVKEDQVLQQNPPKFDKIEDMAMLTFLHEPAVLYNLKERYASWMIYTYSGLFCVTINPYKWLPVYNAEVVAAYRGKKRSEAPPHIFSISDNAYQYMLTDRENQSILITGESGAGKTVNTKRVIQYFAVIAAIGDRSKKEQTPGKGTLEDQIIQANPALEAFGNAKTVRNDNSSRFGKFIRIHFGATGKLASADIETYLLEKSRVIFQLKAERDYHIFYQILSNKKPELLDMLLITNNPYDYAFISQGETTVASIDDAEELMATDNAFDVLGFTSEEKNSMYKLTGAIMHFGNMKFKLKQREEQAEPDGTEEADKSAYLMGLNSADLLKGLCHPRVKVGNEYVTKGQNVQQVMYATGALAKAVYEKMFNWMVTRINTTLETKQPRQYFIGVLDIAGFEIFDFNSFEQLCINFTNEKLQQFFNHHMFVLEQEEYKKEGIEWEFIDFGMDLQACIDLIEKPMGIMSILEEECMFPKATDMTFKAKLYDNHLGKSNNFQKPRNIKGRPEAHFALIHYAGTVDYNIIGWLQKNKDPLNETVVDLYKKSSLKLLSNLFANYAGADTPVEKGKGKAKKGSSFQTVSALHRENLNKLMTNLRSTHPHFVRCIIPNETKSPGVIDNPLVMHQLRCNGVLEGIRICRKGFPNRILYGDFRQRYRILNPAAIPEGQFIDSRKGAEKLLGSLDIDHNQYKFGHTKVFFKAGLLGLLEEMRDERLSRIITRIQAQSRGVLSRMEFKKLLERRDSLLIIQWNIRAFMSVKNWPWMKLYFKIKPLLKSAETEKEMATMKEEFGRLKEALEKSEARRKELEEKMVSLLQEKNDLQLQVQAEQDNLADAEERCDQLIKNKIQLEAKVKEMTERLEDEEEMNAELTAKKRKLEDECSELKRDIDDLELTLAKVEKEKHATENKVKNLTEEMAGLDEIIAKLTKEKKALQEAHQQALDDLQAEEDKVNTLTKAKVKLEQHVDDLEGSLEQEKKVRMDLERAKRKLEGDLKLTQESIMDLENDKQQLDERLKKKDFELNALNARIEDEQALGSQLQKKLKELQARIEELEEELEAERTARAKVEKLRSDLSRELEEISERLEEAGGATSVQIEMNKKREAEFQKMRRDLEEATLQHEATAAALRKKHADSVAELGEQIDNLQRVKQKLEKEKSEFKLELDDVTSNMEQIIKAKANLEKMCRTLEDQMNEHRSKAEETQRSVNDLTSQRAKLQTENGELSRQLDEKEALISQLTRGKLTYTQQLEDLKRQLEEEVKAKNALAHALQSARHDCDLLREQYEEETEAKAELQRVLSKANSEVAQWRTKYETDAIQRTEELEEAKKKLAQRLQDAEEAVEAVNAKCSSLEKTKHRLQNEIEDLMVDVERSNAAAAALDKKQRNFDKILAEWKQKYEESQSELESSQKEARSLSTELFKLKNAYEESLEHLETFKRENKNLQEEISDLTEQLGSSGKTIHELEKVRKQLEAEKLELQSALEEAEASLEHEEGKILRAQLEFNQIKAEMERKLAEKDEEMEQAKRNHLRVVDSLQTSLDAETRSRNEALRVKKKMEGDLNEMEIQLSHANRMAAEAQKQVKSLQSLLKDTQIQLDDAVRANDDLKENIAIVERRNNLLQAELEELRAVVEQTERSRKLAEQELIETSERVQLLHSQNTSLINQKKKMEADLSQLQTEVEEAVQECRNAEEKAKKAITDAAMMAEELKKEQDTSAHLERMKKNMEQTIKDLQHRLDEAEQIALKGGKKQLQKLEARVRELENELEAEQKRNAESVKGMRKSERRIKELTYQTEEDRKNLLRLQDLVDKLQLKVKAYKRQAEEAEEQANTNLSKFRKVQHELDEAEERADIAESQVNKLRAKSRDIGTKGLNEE
Summary of the method: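 Left-ventricle myofibrils from Yucatan minipigs were tested with a PK/LDH-coupled system, following NADH loss at 340 nm every 1.5-2 min for 75 min. Slopes were normalized to vehicle wells and fit to a 4-parameter logistic model; values are Y75 (25% ATPase reduction) or Y125 concentrations.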

[3] = test system: Rabbit Psoas myofibrils (skeletal myosin ATPase); test: Myofibril ATPase assay, rabbit psoas (skeletal) myofibrils; assay type: biochemical
Summary of the method: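 Myofibrils homogenized in Triton X-100 buffer were assayed in pH 7.0 PIPES with defined Ca2+/EGTA. Myosin-driven ADP formation was coupled to NADH oxidation, with depletion monitored at 340 nm. Each value is the concentration that lowers activity to 75% of vehicle or, for activators, raises it to 125%.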

[4] = porcine atria myofibrils, Y75 value (75% activity relative to no compound)
[5] = EDV change vs vehicle, read-out: EDV % vs. VEH
[6] = LV fractional shortening change vs vehicle, read-out: FS % vs. VEH
[7] = SWT change vs vehicle, read-out: SWT % vs. VEH
[8] = heart rate change vs vehicle, read-out: HR % vs. VEH
[9] = porcine ventricle myofibrils, Y75 value
[10] = rabbit psoas myofibrils, Y75 value
[11] = Y75 value (no ‡ mark), porcine atria myofibrils
[12] = Y75 value (no ‡ mark), porcine ventricle myofibrils
[13] = Y75 value (no ‡ mark), rabbit psoas myofibrils
[14] = Y75 value: concentration required to reduce myosin ATP-ase activity by 25%, Porcine Atria Prep pCa 25 GEOM_MEAN
[15] = Y75 value: concentration required to reduce myosin ATP-ase activity by 25%, Porcine Ventricle Prep pCa 25 GEOM_MEAN
[16] = Y75 value: concentration required to reduce myosin ATP-ase activity by 25%, Rabbit Psoas Prep pCa 25 GEOM_MEAN

SMILES	Atrial EC25 [1, 4] [nM]	Ventricular EC25 [2, 9] [nM]	Skeletal EC25 [3, 10] [nM]	Atrial EC25 [1, 11] [nM]	Ventricular EC25 [2, 12] [nM]	Skeletal EC25 [3, 13] [nM]	Atrial EC25 [1, 14] [nM]	Ventricular EC25 [2, 15] [nM]	Skeletal EC25 [3, 16] [nM]	change in vivo at 10 mg/kg (SD rats; [5]) [%]	change in vivo at 10 mg/kg (SD rats; [6]) [%]	change in vivo at 10 mg/kg (SD rats; [7]) [%]	change in vivo at 10 mg/kg (SD rats; [8]) [%]
Cc1nccc2[nH]c(=O)c(CC(=O)N[C@@H](C)c3ccc(C#N)cc3F)c(C)c12 (single isomer, unassigned) [compound 256]	80	190	20							1 to 20	1 to 20	1 to 20	1 to 10
Cc1c(CC(=O)N[C@H](C)c2ncc(C#N)cc2F)c(=O)[nH]c2ccc(F)c(C3CC3)c12 [compound 27]				230	240	140				11 to 20	11 to 20	≥ 21	1 to 20
C[C@@H](NC(=O)Cc1cc2c(F)c(F)ccc2[nH]c1=O)c1ncc(C#N)cc1F [compound 35]				80	150	90				11 to 20	1 to 20	0	1 to 10
C[C@H](NC(=O)Cc1cc2c(F)c(F)ccc2[nH]c1=O)c1ncc(C#N)cc1F [compound 36]				20	50	10				1 to 10	41 to 60	21 to 40	11 to 20
Cc1c(CC(=O)N[C@@H](C)c2ccc(F)cc2F)c(=O)[nH]c2ccc(F)c(C#N)c12 [compound 83]				40	100	10				1 to 20	11 to 20	11 to 20	1 to 10
Cc1c(CC(=O)N[C@@H](C)c2ccc(F)cc2F)c(=O)[nH]c2ccnc(C#N)c12 [compound 355, 2-(5-cyano-4-methyl-2-oxo-1H-1,6-naphthyridin-3-yl)-N-[(1S)-1-(2,4-difluorophenyl)ethyl]acetamide]	70	140	10							1 to 10	11 to 20	1 to 10	1 to 10
Cc1c(CC(=O)N[C@H](C)c2ncc(C#N)cc2F)c(=O)[nH]c2ccc(F)cc12 [compound 1106]				540	490	370				1 to 10	21 to 40	21 to 40	1 to 10
Cc1nnccc1C(C)NC(=O)Cc1cc2cc(F)c(F)cc2[nH]c1=O (stereo not shown) [compound 2073]				100000	100000	100000							
CC(NC(=O)Cc1cc2cc(F)ccc2[nH]c1=O)c1cc(C#N)c(F)s1 (stereo not shown) [compound 4002]							1600	100000	4100				
O=C(Cc1cc2c(F)c(F)ccc2[nH]c1=O)N1CC2CC1c1ccccc12 (stereo not shown) [compound 4504]				920	470	300							
C[C@@H](NC(=O)C1(c2cc3c(F)c(F)ccc3[nH]c2=O)CC1)c1ccc(F)cc1F [compound 4813]				370	100000	910							
C[C@H](NC(=O)C1(c2cc3c(F)c(F)ccc3[nH]c2=O)CC1)c1ccc(F)cc1F [compound 4814]				230	1310	190							
Cc1c(C(F)(F)C(=O)N[C@H](C)c2ccc(F)cc2F)c(=O)[nH]c2ccc(F)cc12 [compound 4815]				1050	100000	1040							
Cc1c(C(F)(F)C(=O)N[C@@H](C)c2ccc(F)cc2F)c(=O)[nH]c2ccc(F)cc12 [compound 4816]				150	260	150							

Continued, in another order:

Atrial EC25 [1, 4] [nM]	Ventricular EC25 [2, 9] [nM]	Skeletal EC25 [3, 10] [nM]	Atrial EC25 [1, 11] [nM]	Ventricular EC25 [2, 12] [nM]	Skeletal EC25 [3, 13] [nM]	Atrial EC25 [1, 14] [nM]	Ventricular EC25 [2, 15] [nM]	Skeletal EC25 [3, 16] [nM]	SMILES	change in vivo at 10 mg/kg (SD rats; [5]) [%]	change in vivo at 10 mg/kg (SD rats; [6]) [%]	change in vivo at 10 mg/kg (SD rats; [7]) [%]	change in vivo at 10 mg/kg (SD rats; [8]) [%]
			1070	2620	2930				C[C@@H](NC(=O)Cc1cc2c(F)c(F)ccc2[nH]c1=O)c1ncc(C#N)cn1 (single isomer, unassigned) [compound 2071]	1 to 20	1 to 20	11 to 20	1 to 20
			130	450	70				Cc1c(CC(=O)N[C@H](C)c2ncc(C#N)cc2F)c(=O)[nH]c2ccc(F)c(F)c12 [compound 41]	1 to 20	1 to 20	≥ 21	1 to 20
			80	40	10				Cc1c(CC(=O)N[C@@H](C)c2ncc(C#N)cc2F)c(=O)[nH]c2ccc(F)c(F)c12 [compound 42]	1 to 10	21 to 40	≥ 21	0
			480	1370	580				Cc1c(CC(=O)N[C@H](C)c2ncc(C#N)cn2)c(=O)[nH]c2ccc(F)c(F)c12 [compound 1123, (R)—N-(1-(5-cyanopyrimidin-2-yl)ethyl)-2-(5,6-difluoro-4-methyl-2-oxo-1,2-dihydroquinolin-3-yl)acetamide]	21 to 40	21 to 40	41 to 60	1 to 10
			70	340	140				Cc1c(CC(=O)N[C@@H](C)c2ncc(C#N)cn2)c(=O)[nH]c2ccc(F)c(F)c12 [compound 1124, (S)—N-(1-(5-cyanopyrimidin-2-yl)ethyl)-2-(5,6-difluoro-4-methyl-2-oxo-1,2-dihydroquinolin-3-yl)acetamide]	1 to 10	21 to 40	1 to 20	1 to 10
			140	190	210				Cc1c(CC(=O)N[C@@H](C)c2cnc(C#N)cn2)c(=O)[nH]c2ccc(F)c(F)c12 [compound 1146, (S)—N-(1-(5-cyanopyrazin-2-yl)ethyl)-2-(5,6-difluoro-4-methyl-2-oxo-1,2-dihydroquinolin-3-yl)acetamide]	1 to 20	21 to 40	21 to 40	1 to 10
						260	580	160	Cc1c(CC(=O)NC(C)c2cc(C#N)c(F)s2)c(=O)[nH]c2ccc(F)c(F)c12 (stereo not shown) [compound 4001]				
